Publication PMC8201324, “Pyrazoles and Pyrazolines as Anti-Inflammatory Agents” (Molecules, 2021)
“Also recorded” adds a separate entry of the source.

System: adjuvant-induced disease (AID)
Test: Adjuvant-induced disease (AID)
Assay type: in vivo, Fisher 344 rats
Details: AID rats
Procedure: Adjuvant-induced disease (AID) is a good experimental model for rheumatoid arthritis, and is often used in testing agents for anti-inflammatory activity. The compound was administered intraperitoneally on the 1st day, i.e., the day of the administration of Freund’s adjuvant (FA), and once every other day for the following 24 days. Adjuvant arthritis was developed about 14 days post-FA administration. […] The effect of the tested compound on inflammation is shown in Table 7 and the time course of adjuvant arthritis development expressed as arthritic score is shown in Figure 2. In the same experimental model, Indomethacin (IMA) was used as a reference compound.
The animals (Fisher 344 rats), were housed under standard conditions, and received a diet of commercial food pellets and water ad libitum during the maintenance, but were entirely fasted during the experiment period. Both sexes were used, while pregnant females were excluded. Each group was composed of 6–15 animals. Our studies were in accordance with recognized guidelines on animal experimentation (guidelines for the care and use of laboratory animals published by the Greek Government 160/1991, based on EU regulations 86/609). Rats were kept in the Centre of the School of Veterinary Medicine (EL54 BIO42), Aristotle University of Thessaloniki, which is registered by the official state veterinary authorities (presidential degree 56/2013, in harmony with the European Directive 2010/63/EEC). The experimental protocols were approved by the Animal Ethics Committee of the Prefecture of Central Macedonia.
Rats were divided into four groups (five-membered groups of animals were used): groups one, two and three were injected intradermally with 0.1 mL Freund’s adjuvant (FA) into the base of the tails of the animals; group three was the FA control rats; group four was injected with saline, used as an absolute control. Compound 2d (group 1) and indomethacin (group 2) were injected i.p. once every other day for the following 24 days in a dose of 0.00057 mmol/mL/kg body weight (Table 7). Adjuvant arthritis was developed circa 14 days post-FA administration. Arthritic score was measured every 2 days from the commencement (14th day) day. Arthritic score was assessed on the 24th day. For quantification of arthritis (arthritic score); a single point was assigned for each wrist or ankle area and an additional point was given for each involved phalangeal joint, up to a maximum of five points per extremity.
On the 24th day and at least 12 h after the last injection, animals were administered zoxazolamine i.p. […], as an aqueous suspension with a few drops of Tween 80, and the duration of the paralysis were assessed (Table 7) (Figure 2). The experiment was conducted in duplicate.

[1] = 0.00057 mmol/mL/kg i.p. every other day for 24 days

## Brc1ccc(COc2ccc(C3CC(c4ccccc4)=NN3)cc2)cc1 (stereo not shown) [Compound 2d, 5-(4-((4-bromobenzyl)oxy)phenyl)-3-phenyl-4,5-dihydro-1H-pyrazole]
[1]
  Percent change in body weight (g ± SD): 6 ± 0.3 g
  Percent change in liver weight (g ± SD): 7 ± 0.6 g
24th day, zoxazolamine i.p.
  Zoxazolamine paralysis (minutes ± SD): 227 ± 17 min
i.p. once every other day for 24 days, versus AID rat controls
  arthritis development / arthritic score: either did not develop or developed very mild arthritis; also recorded: significantly reduced
